5 compounds from patent US10711002B2, “Purine compounds and method for the treatment of cancer” (THE ROYAL INSTITUTION FOR THE ADVANCEMENT OF …, priority 2016, dated 2020) can be followed below.

Structures are written as SMILES.

Holding throughout (test): High-throughput kinase assay
Common to all, as to type: biochemical

The target of experiment [1] is LCK (Homo sapiens, UniProt P06239). Conditions: read-out: Percent inhibition of kinase activity in vitro, LCK; for inhibition at 0.1 µM: 100 nM; for inhibition at 0.5 µM: 500 nM. As for the experimental part:
(§1) Screening of Compounds 1-4 against several kinases identified two prominent targets of these compounds as the Aurora A kinase and calcium dependent protein kinase C isoforms α, βI, βII and […] (Tables 1 to 3). IC50s for these two targets were obtained by plotting inhibition levels at 500 nM, 100 nM, 50 nM and 10 nM (FIG. 3). These kinases are directly involved in pathways controlling cell differentiation programs, metastasis signaling, as well as EMT and CSC programming and their overexpression was reported to predict decreased metastasis-free survival.

Experiment [2] concerns the target FLT1 (VEGFR1) (Homo sapiens, UniProt P17948). The conditions noted are these: read-out: Percent inhibition of kinase activity in vitro, FLT1 (VEGFR1); for inhibition at 0.1 µM: 100 nM; for inhibition at 0.5 µM: 500 nM. As for the experimental part:
as §1

The target in experiment [3] is T1, PRKCE (PKC epsilon) (Homo sapiens, UniProt Q02156).
T1 sequence (Q02156 1-737): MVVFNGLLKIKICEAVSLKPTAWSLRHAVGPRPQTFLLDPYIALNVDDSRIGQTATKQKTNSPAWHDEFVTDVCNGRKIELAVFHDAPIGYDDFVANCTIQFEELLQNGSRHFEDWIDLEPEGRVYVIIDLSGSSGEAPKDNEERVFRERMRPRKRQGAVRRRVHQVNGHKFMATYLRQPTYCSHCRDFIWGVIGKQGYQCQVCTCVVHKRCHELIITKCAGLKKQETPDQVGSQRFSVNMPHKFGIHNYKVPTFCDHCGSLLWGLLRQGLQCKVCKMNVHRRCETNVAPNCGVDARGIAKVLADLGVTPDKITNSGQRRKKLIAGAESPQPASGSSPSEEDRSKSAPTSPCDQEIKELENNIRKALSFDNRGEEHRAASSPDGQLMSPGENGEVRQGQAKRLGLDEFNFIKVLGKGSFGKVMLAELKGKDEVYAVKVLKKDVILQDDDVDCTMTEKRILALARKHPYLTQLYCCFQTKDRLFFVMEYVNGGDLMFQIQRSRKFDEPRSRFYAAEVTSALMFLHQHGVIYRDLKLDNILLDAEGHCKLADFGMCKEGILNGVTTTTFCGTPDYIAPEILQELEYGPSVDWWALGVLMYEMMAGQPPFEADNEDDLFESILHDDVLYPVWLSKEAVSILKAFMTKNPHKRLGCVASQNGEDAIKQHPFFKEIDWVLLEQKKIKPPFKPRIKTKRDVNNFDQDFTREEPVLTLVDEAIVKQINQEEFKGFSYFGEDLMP
The conditions noted are these: 50 nM; read-out: Percent inhibition of kinase activity in vitro, PRKCE (PKC epsilon). As for the experimental part: as §1

Experiment [4] concerns the target PRKCB2 (PKC beta II) (Homo sapiens, UniProt P05771). The conditions noted are these: 50 nM; read-out: Percent inhibition of kinase activity in vitro, PRKCB2 (PKC beta II). As for the experimental part: as §1
Experiment [5] concerns the target PRKCD (PKC delta) (Homo sapiens, UniProt Q05655). Conditions: 50 nM; read-out: Percent inhibition of kinase activity in vitro, PRKCD (PKC delta). As for the experimental part: as §1
In experiment [6] the target is FRAP1 (mTOR) (Homo sapiens, UniProt P42345). Conditions: read-out: Percent inhibition of kinase activity in vitro, FRAP1 (mTOR); for inhibition at 0.1 µM: 100 nM; for inhibition at 0.5 µM: 500 nM. As for the experimental part: as §1
Experiment [7] has as its target MET (cMet) (Homo sapiens, UniProt P08581). The conditions noted are these: read-out: Percent inhibition of kinase activity in vitro, MET (cMet); for inhibition at 0.1 µM: 100 nM; for inhibition at 0.5 µM: 500 nM. As for the experimental part:
as §1

Experiment [8] has as its target SYK (Homo sapiens, UniProt P43405). The conditions noted are these: read-out: Percent inhibition of kinase activity in vitro, SYK; for inhibition at 0.1 µM: 100 nM; for inhibition at 0.5 µM: 500 nM. As for the experimental part:
as §1

Experiment [9] concerns the target T2, TGFBR1 (ALK5) (Homo sapiens, UniProt P36897).
T2 sequence (P36897 34-503): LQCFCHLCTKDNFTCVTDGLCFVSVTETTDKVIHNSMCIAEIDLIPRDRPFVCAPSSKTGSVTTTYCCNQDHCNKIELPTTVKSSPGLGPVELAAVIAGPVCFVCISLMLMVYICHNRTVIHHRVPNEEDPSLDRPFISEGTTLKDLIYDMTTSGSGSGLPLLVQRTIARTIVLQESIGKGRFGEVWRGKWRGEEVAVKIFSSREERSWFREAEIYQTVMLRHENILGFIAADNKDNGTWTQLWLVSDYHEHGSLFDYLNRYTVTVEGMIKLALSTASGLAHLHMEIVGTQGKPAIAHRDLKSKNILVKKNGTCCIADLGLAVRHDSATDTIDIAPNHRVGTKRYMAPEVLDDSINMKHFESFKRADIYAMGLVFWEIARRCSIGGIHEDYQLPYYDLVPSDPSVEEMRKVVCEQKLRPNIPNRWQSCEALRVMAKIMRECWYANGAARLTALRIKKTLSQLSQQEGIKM
Conditions: read-out: Percent inhibition of kinase activity in vitro, TGFBR1 (ALK5); for inhibition at 0.1 µM: 100 nM; for inhibition at 0.5 µM: 500 nM. As for the experimental part: as §1

For experiment [10], the target named is SRC (Homo sapiens, UniProt P12931). Conditions: read-out: Percent inhibition of kinase activity in vitro, SRC; for inhibition at 0.1 µM: 100 nM; for inhibition at 0.5 µM: 500 nM. As for the experimental part: as §1
The target in experiment [11] is JAK2 (Homo sapiens, UniProt O60674). The conditions noted are these: read-out: Percent inhibition of kinase activity in vitro, JAK2; for inhibition at 0.1 µM: 100 nM; for inhibition at 0.5 µM: 500 nM. As for the experimental part: as §1
For experiment [12], the target named is AURKB (Aurora B) (Homo sapiens, UniProt Q96GD4). The conditions noted are these: read-out: Percent inhibition of kinase activity in vitro, AURKB (Aurora B); for inhibition at 0.1 µM: 100 nM; for inhibition at 0.5 µM: 500 nM. As for the experimental part: as §1
In experiment [13] the target is AKT1 (PKB alpha) (Homo sapiens, UniProt P31749). Conditions: read-out: Percent inhibition of kinase activity in vitro, AKT1 (PKB alpha); for inhibition at 0.1 µM: 100 nM; for inhibition at 0.5 µM: 500 nM. As for the experimental part:
as §1

In experiment [14] the target is PRKCH (PKC eta) (Homo sapiens, UniProt P24723). The conditions noted are these: 50 nM; read-out: Percent inhibition of kinase activity in vitro, PRKCH (PKC eta). As for the experimental part: as §1
PRKCH (PKC eta), sequence (P24723 whole entry): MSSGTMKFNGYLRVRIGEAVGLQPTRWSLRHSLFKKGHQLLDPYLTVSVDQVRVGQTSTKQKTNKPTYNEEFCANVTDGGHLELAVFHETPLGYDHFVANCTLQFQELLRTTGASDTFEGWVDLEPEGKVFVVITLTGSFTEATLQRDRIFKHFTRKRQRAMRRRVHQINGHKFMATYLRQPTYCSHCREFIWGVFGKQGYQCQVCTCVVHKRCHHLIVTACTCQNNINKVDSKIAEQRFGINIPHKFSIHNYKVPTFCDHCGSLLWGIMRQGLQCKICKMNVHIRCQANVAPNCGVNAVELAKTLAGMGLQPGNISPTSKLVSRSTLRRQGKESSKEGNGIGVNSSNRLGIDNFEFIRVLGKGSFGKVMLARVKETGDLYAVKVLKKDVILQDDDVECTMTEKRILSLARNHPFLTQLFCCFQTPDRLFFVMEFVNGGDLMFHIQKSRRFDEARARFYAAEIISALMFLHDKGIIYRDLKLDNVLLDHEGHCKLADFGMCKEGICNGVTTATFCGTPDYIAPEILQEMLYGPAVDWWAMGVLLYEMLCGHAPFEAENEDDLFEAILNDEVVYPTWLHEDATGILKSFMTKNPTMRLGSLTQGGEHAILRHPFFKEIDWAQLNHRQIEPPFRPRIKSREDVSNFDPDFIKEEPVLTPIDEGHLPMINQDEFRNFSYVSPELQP

PRKCD (PKC delta), sequence (Q05655 whole entry): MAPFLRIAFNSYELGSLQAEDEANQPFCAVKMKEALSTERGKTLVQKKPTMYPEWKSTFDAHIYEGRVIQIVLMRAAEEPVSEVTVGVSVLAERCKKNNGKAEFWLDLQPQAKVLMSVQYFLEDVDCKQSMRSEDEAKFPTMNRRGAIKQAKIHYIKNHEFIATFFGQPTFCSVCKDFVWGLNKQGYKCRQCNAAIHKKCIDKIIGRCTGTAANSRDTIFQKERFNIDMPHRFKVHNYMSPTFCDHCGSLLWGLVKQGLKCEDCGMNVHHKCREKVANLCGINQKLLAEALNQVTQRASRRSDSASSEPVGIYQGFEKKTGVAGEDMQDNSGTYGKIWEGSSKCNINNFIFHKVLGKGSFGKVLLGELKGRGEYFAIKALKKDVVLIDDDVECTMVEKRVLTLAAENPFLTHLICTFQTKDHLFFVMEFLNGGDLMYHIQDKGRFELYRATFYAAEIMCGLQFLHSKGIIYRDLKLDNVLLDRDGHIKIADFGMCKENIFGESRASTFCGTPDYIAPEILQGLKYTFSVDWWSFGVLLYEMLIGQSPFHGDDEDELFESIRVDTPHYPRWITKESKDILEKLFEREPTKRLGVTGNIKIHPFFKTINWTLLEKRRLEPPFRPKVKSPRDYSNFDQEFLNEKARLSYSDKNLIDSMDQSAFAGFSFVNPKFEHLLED
JAK2, sequence (O60674 whole entry): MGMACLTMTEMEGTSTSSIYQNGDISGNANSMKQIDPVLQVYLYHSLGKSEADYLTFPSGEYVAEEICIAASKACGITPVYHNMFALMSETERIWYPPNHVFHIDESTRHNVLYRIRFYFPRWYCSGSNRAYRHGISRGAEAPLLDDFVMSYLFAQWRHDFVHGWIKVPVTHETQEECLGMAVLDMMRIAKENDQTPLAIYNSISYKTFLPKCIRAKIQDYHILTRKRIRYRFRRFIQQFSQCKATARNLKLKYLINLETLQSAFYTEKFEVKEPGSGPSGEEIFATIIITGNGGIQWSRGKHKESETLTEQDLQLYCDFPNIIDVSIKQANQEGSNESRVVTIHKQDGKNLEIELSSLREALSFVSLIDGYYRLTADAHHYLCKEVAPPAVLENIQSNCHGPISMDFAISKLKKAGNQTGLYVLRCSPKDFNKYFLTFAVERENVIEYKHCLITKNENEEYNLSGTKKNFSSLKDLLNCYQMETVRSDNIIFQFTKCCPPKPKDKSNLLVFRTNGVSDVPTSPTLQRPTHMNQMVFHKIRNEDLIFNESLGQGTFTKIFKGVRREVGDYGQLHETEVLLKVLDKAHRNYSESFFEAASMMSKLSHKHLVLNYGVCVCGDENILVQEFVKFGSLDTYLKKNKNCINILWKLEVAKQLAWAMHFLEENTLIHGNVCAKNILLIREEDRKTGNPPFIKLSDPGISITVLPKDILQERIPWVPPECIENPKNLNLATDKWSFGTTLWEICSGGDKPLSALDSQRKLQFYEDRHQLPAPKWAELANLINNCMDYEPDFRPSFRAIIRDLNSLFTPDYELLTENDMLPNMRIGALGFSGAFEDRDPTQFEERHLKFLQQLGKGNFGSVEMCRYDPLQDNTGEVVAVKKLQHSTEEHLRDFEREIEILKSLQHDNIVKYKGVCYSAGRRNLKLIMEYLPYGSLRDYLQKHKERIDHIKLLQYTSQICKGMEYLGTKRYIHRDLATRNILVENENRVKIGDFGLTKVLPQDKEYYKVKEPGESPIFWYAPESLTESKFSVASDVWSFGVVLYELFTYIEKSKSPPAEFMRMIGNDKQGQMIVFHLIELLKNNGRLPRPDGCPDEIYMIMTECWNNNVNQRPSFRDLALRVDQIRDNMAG
LCK, sequence (P06239 whole entry, canonical isoform): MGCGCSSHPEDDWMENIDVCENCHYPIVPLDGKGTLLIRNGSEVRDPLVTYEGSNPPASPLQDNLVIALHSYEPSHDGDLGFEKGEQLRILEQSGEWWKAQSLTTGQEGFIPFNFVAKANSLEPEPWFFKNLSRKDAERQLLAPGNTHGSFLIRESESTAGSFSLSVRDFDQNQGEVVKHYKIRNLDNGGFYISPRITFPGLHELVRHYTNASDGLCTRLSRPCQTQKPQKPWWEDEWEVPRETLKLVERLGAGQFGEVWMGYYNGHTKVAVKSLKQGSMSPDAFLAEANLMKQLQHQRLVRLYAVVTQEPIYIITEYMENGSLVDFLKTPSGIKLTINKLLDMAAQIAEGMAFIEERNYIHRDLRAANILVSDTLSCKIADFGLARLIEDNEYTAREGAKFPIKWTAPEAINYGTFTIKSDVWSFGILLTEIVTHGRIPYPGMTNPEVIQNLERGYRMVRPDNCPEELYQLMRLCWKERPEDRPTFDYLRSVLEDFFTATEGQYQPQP
SRC, sequence (P12931 whole entry): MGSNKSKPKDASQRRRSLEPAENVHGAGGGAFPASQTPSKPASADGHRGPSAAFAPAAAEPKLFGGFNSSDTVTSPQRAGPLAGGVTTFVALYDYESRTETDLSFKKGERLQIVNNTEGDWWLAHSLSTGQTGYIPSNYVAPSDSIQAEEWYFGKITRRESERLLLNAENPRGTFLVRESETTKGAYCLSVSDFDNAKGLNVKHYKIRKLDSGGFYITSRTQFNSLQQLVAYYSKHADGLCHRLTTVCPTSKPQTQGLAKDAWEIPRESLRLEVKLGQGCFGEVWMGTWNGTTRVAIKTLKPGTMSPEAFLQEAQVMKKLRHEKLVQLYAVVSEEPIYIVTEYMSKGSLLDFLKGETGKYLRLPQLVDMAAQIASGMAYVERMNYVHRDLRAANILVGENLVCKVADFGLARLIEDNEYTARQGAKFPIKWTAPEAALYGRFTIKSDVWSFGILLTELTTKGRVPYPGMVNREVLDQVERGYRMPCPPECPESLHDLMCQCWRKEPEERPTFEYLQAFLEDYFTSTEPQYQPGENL
AKT1 (PKB alpha), sequence (P31749 whole entry): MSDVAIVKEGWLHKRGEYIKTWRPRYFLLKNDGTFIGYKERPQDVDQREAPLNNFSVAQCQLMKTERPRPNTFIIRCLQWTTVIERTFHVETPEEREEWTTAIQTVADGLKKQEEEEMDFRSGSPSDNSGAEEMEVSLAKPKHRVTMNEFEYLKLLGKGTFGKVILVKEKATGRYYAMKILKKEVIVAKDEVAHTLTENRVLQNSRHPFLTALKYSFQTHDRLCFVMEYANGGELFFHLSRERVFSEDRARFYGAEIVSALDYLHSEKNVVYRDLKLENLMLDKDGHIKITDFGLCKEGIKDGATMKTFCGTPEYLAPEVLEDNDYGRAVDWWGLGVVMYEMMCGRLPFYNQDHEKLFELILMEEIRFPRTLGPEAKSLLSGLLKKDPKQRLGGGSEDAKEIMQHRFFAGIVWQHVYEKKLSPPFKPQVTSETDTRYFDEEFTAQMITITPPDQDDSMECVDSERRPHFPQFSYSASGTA
PRKCB2 (PKC beta II), sequence (P05771 1-673 isoform P05771-2): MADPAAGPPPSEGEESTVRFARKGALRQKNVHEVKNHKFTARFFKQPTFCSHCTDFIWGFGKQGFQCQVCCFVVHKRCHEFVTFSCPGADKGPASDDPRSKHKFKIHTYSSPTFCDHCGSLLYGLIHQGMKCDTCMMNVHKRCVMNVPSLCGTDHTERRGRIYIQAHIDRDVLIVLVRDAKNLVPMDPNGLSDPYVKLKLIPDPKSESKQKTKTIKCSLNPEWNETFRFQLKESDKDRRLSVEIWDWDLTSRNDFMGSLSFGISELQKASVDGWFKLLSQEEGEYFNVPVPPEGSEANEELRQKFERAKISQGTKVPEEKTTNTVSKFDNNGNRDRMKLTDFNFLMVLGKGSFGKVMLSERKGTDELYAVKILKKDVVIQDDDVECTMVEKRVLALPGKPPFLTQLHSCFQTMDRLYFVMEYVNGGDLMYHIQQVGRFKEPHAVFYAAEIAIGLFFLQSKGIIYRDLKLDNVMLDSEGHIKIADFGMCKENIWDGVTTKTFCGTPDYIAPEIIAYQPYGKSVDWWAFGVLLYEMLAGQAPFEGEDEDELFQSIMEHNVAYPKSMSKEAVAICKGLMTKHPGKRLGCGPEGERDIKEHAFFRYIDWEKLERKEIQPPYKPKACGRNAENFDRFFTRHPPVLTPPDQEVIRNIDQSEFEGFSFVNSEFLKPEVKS
AURKB (Aurora B), sequence (Q96GD4 whole entry): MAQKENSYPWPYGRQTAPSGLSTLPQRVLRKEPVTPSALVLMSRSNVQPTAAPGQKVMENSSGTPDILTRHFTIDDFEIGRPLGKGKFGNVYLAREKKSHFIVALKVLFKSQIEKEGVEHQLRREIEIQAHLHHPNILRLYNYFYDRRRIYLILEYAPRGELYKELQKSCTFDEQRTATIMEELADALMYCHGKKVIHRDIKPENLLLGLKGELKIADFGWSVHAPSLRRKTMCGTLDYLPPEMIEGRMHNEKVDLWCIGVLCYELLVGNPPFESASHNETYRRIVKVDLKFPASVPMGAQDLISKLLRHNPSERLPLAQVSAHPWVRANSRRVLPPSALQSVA

Consider `O=c1c2ccccc2[se]n1-c1nc(NC2CCCCC2)c2nc[nH]c2n1` [Compound 1], for which the inhibition at 0.1 µM in experiment [1] is 7%; in experiment [2], 0%; in experiment [6], 1%; in [7], 2%; in [8], 6%; in experiment [9] it was 0%. The inhibition at 0.1 µM in experiment [10] came to 1%; in [11] it was 10%; in experiment [12], 12%; in [13], 4%. Moreover, the inhibition at 0.5 µM is 14% in [1]; 1% in experiment [2]; 2% in [6]; 10% in experiment [7]; 8% in [8]; 0% in experiment [9]. The inhibition at 0.5 µM came out at 5% in [10], 10% in experiment [11], 25% in [12] and 11% in experiment [13]. Besides, the inhibition at 0.05 µM is 6% in [3], 62% in experiment [4], 0% in [5] and 0% in experiment [14].
Take `O=c1c2ccccc2[se]n1-c1nc(NC2CC[Se]C2)c2nc[nH]c2n1` (stereo not shown) [Compound 2]: the inhibition at 0.1 µM was 10% in experiment [1]; 1% in experiment [7]; 2% in experiment [8]; 0% in [9]; 4% in [10]; 15% in experiment [11]. Besides, the inhibition at 0.1 µM in experiment [12] was found to be 19%; in experiment [13], 4%. Besides, the inhibition at 0.5 µM in [1] is 14%; in [2], 5%; in [6] it was 5%; in experiment [7] it was 5%; in experiment [8], 9%; in [9], 0%. For the same compound, the inhibition at 0.5 µM in [10] came out at 7%; in experiment [11], 13%; in experiment [12] it was 13%; in experiment [13], 15%.
For the compound `C[C@@H]1C(Nc2nc(-n3[se]c4ccccc4c3=O)nc3[nH]cnc23)C[C@H]2C[C@@H]1C2(C)C` (stereo partly shown) [Compound 3], the inhibition at 0.1 µM in [1] amounted to 0%; in experiment [7], 0%; in [8], 0%; in [9] it was 3%; in experiment [10], 4%; in experiment [11] it was 13%. For the same compound, the results for the inhibition at 0.1 µM in experiment [12] and in experiment [13] were 24% and 1%, respectively. The inhibition at 0.5 µM in [1] worked out at 16%; in [2], 7%; in experiment [6] it was 1%; in experiment [7], 17%; in [8] it was 24%; in [9], 0%. In addition, the inhibition at 0.5 µM was 7% in [10], 11% in experiment [11], 19% in [12] and 29% in experiment [13].
As to `O=c1c2ccccc2[se]n1-c1nc(N[C@H]2CC[Se]C2)c2nc[nH]c2n1` [Compound 4], the inhibition at 0.1 µM worked out at 8% in experiment [1]; 4% in experiment [2]; 8% in experiment [6]; 4% in experiment [7]; 6% in experiment [8]; 0% in [9]. The inhibition at 0.1 µM in [10] is 4%; in experiment [11], 18%; in [12], 14%; in experiment [13] it was 4%. Further, the inhibition at 0.05 µM in experiment [3] came out at 5%; in experiment [4], 95%; in [5] it was 0%; in experiment [14], 6%.
For `O=C1c2ccccc2CN1c1nc(NC2CCCCC2)c2nc[nH]c2n1` [SLLN-6C, reference compound], the inhibition at 0.1 µM came to 8% in experiment [1]; 0% in experiment [2]; 0% in experiment [6]; 0% in experiment [7]; 2% in [8]; 0% in experiment [9]. Further, the inhibition at 0.1 µM in experiment [10] came out at 3%; in experiment [11], 7%; in experiment [12], 10%; in experiment [13], 2%. Further, the inhibition at 0.05 µM in experiment [3] was 4%; in [4] it was 5%; in [5], 0%; in experiment [14], 0%.
